What all share (assay type): cell-based, human
Assay [1] deals with A549 cells. In words: Cell proliferation, BrdU ELISA and Celltiter Glo (FIG. 1).
Assay [2] deals with A549 cells. The experiment in a line: Apoptosis, Roche Cell Death ELISA and Caspase-3/7 (FIG. 1). The conditions noted are these: for apoptosis: agent alone, 24 h. As to the method: (§1) A549 cells were grown in RPMI-1640 supplemented with 25 mM HEPES, 10 mM glutamine and 10% fetal bovine serum and maintained at 37° C. and 5% CO2 in a humid incubator. Colo205 and MDA-MB-468 cells were grown in DMEM supplemented with 25 mM HEPES, 10 mM glutamine, 4.5 g/L d-glucose, and 10% fetal bovine serum. Assays were performed in 96 well microtiter plates with optimum seeding densities for each cell line.
(§2) Apoptosis was measured using the Roche Cell Death ELISA^Plus kit (catalog 1 774 425) which detects fragmented nucleosomal DNA that is generated during apoptosis.
(§3) Cell death was measured using the Roche Cell Death ELISA^Plus kit and Promega Apo-ONE™ Homogeneous Caspase-3/7 Assay. Total cell number was measured using the Celltiter Glo® Luminescent Cell Viability Assay and cell proliferation was measured with the Roche BrdU Cell Proliferation ELISA assay.

The test system of assay [3] is Colo205 cells. In words: Cell proliferation, BrdU ELISA and Celltiter Glo (FIG. 2). Here is the method:
(§4) Colo205 and MDA-MB-468 cells were grown in DMEM supplemented with 25 mM HEPES, 10 mM glutamine, 4.5 g/L d-glucose, and 10% fetal bovine serum. Assays were performed in 96 well microtiter plates with optimum seeding densities for each cell line.
(§5) Cell proliferation was measured using the Celltiter Glo® Luminescent Cell Viability Assay available from Promega Corporation and the Roche BrdU Cell Proliferation ELISA assay.
as §3

The subject of assay [4] is Colo205 cells. The experiment in a line: Apoptosis, Roche Cell Death ELISA and Caspase-3/7 (FIG. 2). The conditions noted are these: for apoptosis: agent alone, 24 h. As to the method: as §1, §2, §3
For assay [5], the system named is MDA-MB-468 cells. The experiment in a line: Cell proliferation, BrdU ELISA and Celltiter Glo (FIG. 3). As to the method:
as §4, §5, §3

Assay [6] relates to MDA-MB-468 cells. The experiment in a line: Apoptosis, Roche Cell Death ELISA and Caspase-3/7 (FIG. 3). The conditions noted are these: for apoptosis: agent alone, 24 h. Here is the method: as §1, §2, §3
Setting [7] is: 1:1 molar ratio with GW572016, 24 h.

Structures are written as SMILES.

`Nc1ncnc2c1c(-c1cccc(OCc3ccccc3)c1)cn2[C@H]1C[C@@H](CN2CCCC2)C1` [GSK621659A]: the “cell proliferation, combination versus either agent alone” value in assay [1] (setting [7]), in assay [3] (setting [7]) and in assay [5] (setting [7]) was “more effective than either agent alone” throughout. For the same compound, the cell proliferation result in assay [1] (agent alone, 24 h) was “decreased cell proliferation”; in assay [3] (agent alone, 24 h), “decreased cell proliferation”; in assay [5] (agent alone, 24 h), “decreased cell proliferation”. The “apoptosis, combination versus either agent alone” value in assay [2] (setting [7]), in assay [4] (setting [7]) and in assay [6] (setting [7]) was “more effective than either agent alone” in each case. Also, the apoptosis result in assay [2], in assay [4] and in assay [6] was “increased apoptosis” each time.
Regarding `CS(=O)(=O)CCNCc1ccc(-c2ccc3ncnc(Nc4ccc(OCc5cccc(F)c5)c(Cl)c4)c3c2)o1` [GW572016, N-{3-Chloro-4-[(3-fluorobenzyl)oxy]phenyl}-6-[5-({[2-(methanesulphonyl)ethyl]amino}methyl)-2-furyl]-4-quinazolinamine ditosylate monohydrate], the apoptosis result in assay [2], in assay [4] and in assay [6] was “increased apoptosis” each time.

For the origin of these results see patent US20090203718A1, “CANCER TREATMENT METHOD” (SmithKline Beecham (Cork) Ltd., priority 2006, published 2009).
